For one experiment, the target named is T1, human dopamine reuptake transporter (Homo sapiens, UniProt Q01959).
T1 construct: expressed in transfected cells; host or cells: CHO-K1 or HEK293
T1 sequence (Q01959 whole entry): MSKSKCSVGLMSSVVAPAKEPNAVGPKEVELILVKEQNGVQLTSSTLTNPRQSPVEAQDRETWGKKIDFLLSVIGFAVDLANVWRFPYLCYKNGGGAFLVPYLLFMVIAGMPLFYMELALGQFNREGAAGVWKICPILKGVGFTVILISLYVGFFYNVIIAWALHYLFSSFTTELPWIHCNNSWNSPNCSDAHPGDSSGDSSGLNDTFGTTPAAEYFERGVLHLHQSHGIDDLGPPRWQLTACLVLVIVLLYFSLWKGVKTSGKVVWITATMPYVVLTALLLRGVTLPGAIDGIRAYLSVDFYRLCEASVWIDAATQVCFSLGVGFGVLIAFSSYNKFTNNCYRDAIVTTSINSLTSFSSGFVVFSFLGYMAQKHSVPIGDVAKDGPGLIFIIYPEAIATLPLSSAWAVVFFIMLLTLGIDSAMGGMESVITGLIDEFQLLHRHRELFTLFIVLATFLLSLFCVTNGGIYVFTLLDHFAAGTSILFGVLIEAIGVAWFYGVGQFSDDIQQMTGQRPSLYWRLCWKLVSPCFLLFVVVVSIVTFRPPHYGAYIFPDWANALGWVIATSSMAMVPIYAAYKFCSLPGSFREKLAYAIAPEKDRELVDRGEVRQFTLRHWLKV
The experiment in a line: cell-based. The settings on record: recombinant human dopamine transporter (DAT); read-out: Human IC50 (nM) hDAT.
With `CN(C)C[C@]1(c2ccc(Cl)c(Cl)c2)CCC[C@H](O)C1` (relative stereo) [Compound 203, cis-3-(3,4-dichlorophenyl)-3-((dimethylamino)methyl)cyclohexanol], the IC50 was determined as 1.4 nM.

Turning to `CNC(C)C1(c2cccc3ccccc23)CCCCC1` (single isomer, unassigned) [59 E1, N-methyl-1-(1-(naphthalen-1-yl)cyclohexyl)ethanamine], the IC50 was 1750 nM. As to `CNC(C)C1(c2cccc3ccccc23)CCCCC1` (single isomer, unassigned) [59 E2, N-methyl-1-(1-(naphthalen-1-yl)cyclohexyl)ethanamine], the IC50 was found to be 3870 nM. Same read-out and setting: to `CCC(NC)C1(c2ccc(Cl)c(Cl)c2)CCCCC1` (single isomer, unassigned) [62 E1, 1-(1-(3,4-dichlorophenyl)cyclohexyl)-N-methylpropan-1-amine] belongs 39 nM. The same measure, in the same setting: the result for `CCC(NC)C1(c2ccc(Cl)c(Cl)c2)CCCCC1` (single isomer, unassigned) [62 E2, 1-(1-(3,4-dichlorophenyl)cyclohexyl)-N-methylpropan-1-amine] reads 4 nM; that for `CNCC1(c2ccc(OC(F)(F)F)cc2)CCCCC1O` (single isomer, unassigned) [146 E1, trans-2-((Methylamino)methyl)-2-(4-(trifluoromethoxy)phenyl) cyclohexanol], above 10000 nM.

The target of the next experiment is human serotonin reuptake transporter (Homo sapiens, UniProt P31645). Nature of the experiment: cell-based. The settings on record: Human IC50 (nM) hSERT.
Sequence of human serotonin reuptake transporter (P31645 whole entry): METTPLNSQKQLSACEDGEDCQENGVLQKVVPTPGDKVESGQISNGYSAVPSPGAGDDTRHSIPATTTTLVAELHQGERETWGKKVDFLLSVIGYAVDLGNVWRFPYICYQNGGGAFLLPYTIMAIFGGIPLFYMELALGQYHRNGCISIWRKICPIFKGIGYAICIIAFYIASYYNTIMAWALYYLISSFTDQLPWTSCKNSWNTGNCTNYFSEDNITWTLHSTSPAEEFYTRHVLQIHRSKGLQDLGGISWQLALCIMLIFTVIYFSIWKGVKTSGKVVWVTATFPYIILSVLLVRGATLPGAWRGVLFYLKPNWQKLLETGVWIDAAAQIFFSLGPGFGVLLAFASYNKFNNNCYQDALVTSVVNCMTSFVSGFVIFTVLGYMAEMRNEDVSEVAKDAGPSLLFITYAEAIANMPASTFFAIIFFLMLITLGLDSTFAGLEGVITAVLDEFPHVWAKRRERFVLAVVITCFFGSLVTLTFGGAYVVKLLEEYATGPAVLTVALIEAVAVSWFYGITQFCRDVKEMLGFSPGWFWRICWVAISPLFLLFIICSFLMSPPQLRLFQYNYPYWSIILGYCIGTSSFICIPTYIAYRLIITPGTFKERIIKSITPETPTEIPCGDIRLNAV
As to `CC(C)CC(N)C1(c2ccc(Cl)cc2)CCCCC1` (single isomer, unassigned) [21 E1, 1-(1-(4-chlorophenyl)cyclohexyl)-3-methylbutan-1-amine], the IC50 amounted to 9660 nM. As to `CC(C)CC(N)C1(c2ccc(Cl)cc2)CCCCC1` (single isomer, unassigned) [21 E2, 1-(1-(4-chlorophenyl)cyclohexyl)-3-methylbutan-1-amine], the IC50 is 1240 nM. In the case of `CNCC1(c2ccc(Cl)c(Cl)c2)CCCC(F)(F)C1` (single isomer, unassigned) [205 E1, 1-(1-(3,4-dichlorophenyl)-3,3-difluorocyclohexyl)-N-methylmethanamine], the IC50 was 4210 nM. In turn, `CNCC1(c2ccc(Cl)c(Cl)c2)CCCC(F)(F)C1` (single isomer, unassigned) [205 E2, 1-(1-(3,4-dichlorophenyl)-3,3-difluorocyclohexyl)-N-methylmethanamine] showed an IC50 of 1710 nM. Still for that read-out and setting: the result for `CC(C)CC(N)C1(c2ccc(Cl)cc2)CCCCC1` (centres unmarked) [Compound 21, 1-(1-(4-chlorophenyl)cyclohexyl)-3-methylbutan-1-amine] reads 2100 nM.

Still in this experiment, the particulars now being: Human IC50 (nM) hSERT, recombinant human serotonin transporter (SERT).
With `CNCC1(c2cccc(C(F)(F)F)c2)CCCCC1` [Compound 104, N-methyl-1-(1-(3-(trifluoromethyl)phenyl)-cyclohexyl)methanamine], the IC50 amounted to 9490 nM.

Staying with this experiment, now noted: recombinant human serotonin transporter (SERT); read-out: Human IC50 (nM) hSERT.
As for `CC(N)C1(c2ccc(OC(F)(F)F)cc2)CCCCC1` (single isomer, unassigned) [19 E1, 1-(1-(4-(trifluoromethoxy)phenyl)cyclohexyl)ethanamine], the IC50 was 1510 nM. Consider `CC(N)C1(c2ccc(OC(F)(F)F)cc2)CCCCC1` (single isomer, unassigned) [19 E2, 1-(1-(4-(trifluoromethoxy)phenyl)cyclohexyl)ethanamine], for which the IC50 is 398 nM. Consider `CC(N)C1(c2ccc(-c3ccco3)cc2)CCCCC1` (single isomer, unassigned) [22 E1, 1-(1-(4-(furan-2-yl)phenyl)cyclohexyl)ethanamine], for which the IC50 turned out to be 63 nM.

For `CC(N)C1(c2ccc(-c3ccco3)cc2)CCCCC1` (single isomer, unassigned) [22 E2, 1-(1-(4-(furan-2-yl)phenyl)cyclohexyl)ethanamine], the IC50 came out at 101 nM. As for `CNCC1(c2ccc(Cl)cc2)CCCCC1O` (single isomer, unassigned) [136 E1, trans-2-(4-chlorophenyl)-2-((methylamino)methyl)-cyclohexanol], the IC50 was above 10000 nM. With `CNCC1(c2ccc(Cl)cc2)CCCCC1O` (single isomer, unassigned) [136 E2, trans-2-(4-chlorophenyl)-2-((methylamino)methyl)-cyclohexanol], the IC50 is above 10000 nM. In the case of `CNCC1(c2ccc(OC)cc2)CCCCC1O` (single isomer, unassigned) [140 E2, trans-2-(4-Methoxyphenyl)-2-((methylamino)methyl)cyclohexanol], the IC50 was above 10000 nM. With `CCNCC1(c2ccc(Cl)c(Cl)c2)CCCCC1CO` (single isomer, unassigned) [169 E1, (2-(3,4-dichlorophenyl)-2-((ethylamino)methyl)-cyclohexyl)methanol], the IC50 worked out at 1100 nM. Still for that read-out and setting: to `CCNCC1(c2ccc(Cl)c(Cl)c2)CCCCC1CO` (single isomer, unassigned) [169 E2, (2-(3,4-dichlorophenyl)-2-((ethylamino)methyl)-cyclohexyl)methanol] belongs 332 nM. Consider `NCC1(c2ccc(Cl)c(Cl)c2)CCCC(O)C1` (single isomer, unassigned) [184 E1, Cis-3-(aminomethyl)-3-(3,4-dichlorophenyl)cyclohexanol], for which the IC50 was above 10000 nM. In the case of `NCC1(c2ccc(Cl)c(Cl)c2)CCCC(O)C1` (single isomer, unassigned) [184 E2, Cis-3-(aminomethyl)-3-(3,4-dichlorophenyl)cyclohexanol], the IC50 is above 10000 nM. For `NCC1(c2ccc(Cl)c(Cl)c2)CCCC(O)C1` (single isomer, unassigned) [185 E1, Trans-3-(aminomethyl)-3-(3,4-dichlorophenyl)cyclohexanol], the IC50 is above 10000 nM. Still for that read-out and setting: to `NCC1(c2ccc(Cl)c(Cl)c2)CCCC(O)C1` (single isomer, unassigned) [185 E2, Trans-3-(aminomethyl)-3-(3,4-dichlorophenyl)cyclohexanol] belongs above 10000 nM. Same read-out and setting: to `CC(N)C1(c2ccc(OC(F)(F)F)cc2)CCCCC1` (centres unmarked) [Compound 19, 1-(1-(4-(trifluoromethoxy)phenyl)cyclohexyl)ethanamine] belongs 107 nM; to `CC(N)C1(c2ccc(-c3ccco3)cc2)CCCCC1` (centres unmarked) [Compound 22, 1-(1-(4-(furan-2-yl)phenyl)cyclohexyl)ethanamine], 296 nM; to `CNCC1(c2ccc(OC(F)(F)F)cc2)CCC(C)(O)CC1` (centres unmarked) [Compound 247, 1-methyl-4-((methylamino)methyl)-4-(4-(trifluoromethoxy)phenyl)cyclohexanol], 707 nM. For `CN(C)CC1(c2ccc(OC(F)(F)F)cc2)CCC(O)CC1` (centres unmarked) [Compound 250, 4-((dimethylamino)methyl)-4-(4-(trifluoromethoxy)phenyl)cyclohexanol], the IC50 is 47 nM. On the same count and under the same terms, to `CNCC1(c2ccc(Cl)c(Cl)c2)CCC(F)(F)CC1` [Compound 268, 1-(1-(3,4-dichlorophenyl)-4,4-difluorocyclohexyl)-N-methylmethanamine] belongs 704 nM; to `CC1(O)CCC(CN)(c2ccc(Cl)c(Cl)c2)CC1` (centres unmarked) [Compound 272, 4-(aminomethyl)-4-(3,4-dichlorophenyl)-1-methylcyclohexanol], above 10000 nM. Regarding `CC1(O)CCC(CN)(c2ccc(Cl)c(Cl)c2)CC1` (centres unmarked) [Compound 275, 4-(aminomethyl)-4-(3,4-dichlorophenyl)-1-methylcyclohexanol], the IC50 is 1190 nM.

The record behind these values is patent publication EP1976513B1 (priority 2006, dated 2007).
